The text below walks through data of patent publication US20250388568A1, “NLRP3 INHIBITORS” (Kodiak Sciences Inc., priority 2022, published 2025).

As usually defined, the IC50 is the point on the concentration scale where inhibition reaches its midpoint.

Experiment [1] concerns IL-1β release in U937 cells after NLRP3 activation. Nature of the experiment: IC50 determination of IL-1β release inhibition in U937 cells. To be noted: Homo sapiens, read-out: IL-1β IC50 (nM) U937 cells. It counts as cell-based. The protocol:
Example 79: IC50 Determination of IL-1β Release Inhibition in U937 Cells The compounds of the present disclosure were tested for their ability to inhibit the IL-1β release in the U937 cells after NLRP3 activation. U937 cells (U-97 CRL 1593.2) were thawed following ATCC's initial culture procedure. […] The growth medium was composed of RPMI1640 medium (Quality Biological 112-040-101), 10% serum (Corning 35-076-CV), Pen/Strep (GIBCO 15140-122), 10 mM Hepes (Quality Biological 118-089-721), 2 mM Glutamax (GIBCO 35050-061), and 100 μg/mL normocin (Invivogen ant-nr)-Differentiating media was prepared by adding Phorbol 12-myristate 13-acetate (PMA) (AdipoGen AG-CN2-0010-M005) to growth medium. A cell suspension was prepared with differentiating media at 500k cells/ml. With an electronic pipet, 200 ul of cell suspension was added to each well (96w white plate Corning 3903) leaving columns 1 and 2 empty. Plates were left in the biosafety cabinet for 15 min and then placed in incubator for 90 hours. Priming media was prepared with assay medium consisting of RPMI 1640 medium, 10 mM Hepes, 2 mM Glutamax and Pen/Strep plus 1 μg/mL LPS (Invivogen tlrl-3pelps). Differentiating media was manually removed and 80 ul of priming media was added to each well with an electronic pipet. The plates were placed in the incubator for 5 hours. […] DMSO). An hour prior to the end of LPS incubation, a separate 96 deep well plate, Plate B, was prepared with 400 μL of assay media per well, then […] of the stock DMSO solution from Plate A was added to each corresponding well. Plate B was covered to avoid media evaporation. In a 50 mL tube, a solution of nigericin in assay media at 50 uM/mL concentration was prepared. To a new 96 deep well plate, Plate C, 200 μL of this nigericin containing media was dispensed to each well and 1 μL of the test compounds from Plate B to each corresponding well was added. Plate C was covered to avoid media evaporation. After 5 hours of priming, all the media from the LPS treated U937 cells was removed manually. To this plate of primed cells, 80 μL/well test compounds from Plate B (assay media+compound) was added in duplicate columns (5 compounds tested per plate). The plate was placed in an incubator for 30 min. […] The plate was placed back in the incubator for 1 hour. At the end of 1 hour, the supernatant from this test plate was transferred to a new 96 well V bottom polypropylene plate which was frozen immediately at -80° C. The plate was transferred to -20° C. the next day and awaited further determination of cytokine IL-Ip level. The release of IL-1β into the cell media was determined by MSD® Multi-Spot Assay System (V-Plex, IL-1B kit, […]-4). Following the manufacture's protocol and using the Alternate Protocol 3, Dilute-In-Plate protocol specifically, the level of IL-IP in the above collected supernatant plate was measured as electrochemiluminescent signals. Using MSD DISCOVERY WORKBENCH® analysis software, the signals were converted to the concentration of IL-1β in each well. The IC50 values of the compounds were calculated using the Graph Pad Prism software based on the IL-1β concentration determined. The detection range of IL-1β using MSD kit was approximately […] (based on various lots of standards purchased from MSD).

The subject of experiment [2] is IL-1β release in THP-1-ASC-GFP cells after NLRP3 activation. Nature of the experiment: IC50 determination of IL-1β release inhibition in THP-1-ASC-GFP cells. It counts as cell-based. The note with it: THP1-ASC-GFP, read-out: IL-1β IC50 (nM) THP1 cells. The method, then: Example 78: IC50 Determination of IL-1β Release Inhibition in THP-1-ASC-GFP Cells The compounds were tested for their ability to inhibit the IL-1β release in the THP-1-ASC-GFP cells after NLRP3 activation. THP1-ASC-GFP cells (Invivogen […] thawed following Invivogen's initial culture procedure. […] The growth medium was composed of RPM1640 medium (Gibco 32404-014), 10% heat inactivated (HI) serum (Gibco A3840102), Pen/Strep (Quality Biologics 118-089-721), 10 mM Hepes (Quality Biologics 118-089-721), 2 mM Glutamax (GIBCO 35050-061), 100 μg/mL normocin (Invivogen ant-nr), 100 μg/mL Zeocin (Invivogen ant-zn). The growth medium was freshly prepared once a week and sterile filtered. Assay medium consisted of RPMI 1640 medium, 10 mM Hepes, 2 mM Glutamax and Pen/Strep. To the assay medium, 1 μg/mL LPS (Invivogen tlrl-3pelps) was added. A cell suspension was prepared with assay medium and LPS at 1.25M cells per mL. With an electronic pipet, 80 μl of cell suspension was added to U bottom 96 well polystyrene plates (VWR 10062-902) leaving columns 1 and 2 empty. The plates were placed in the incubator for 4 hours. […] DMSO). An hour prior to the end of LPS incubation, a separate 96 deep well plate, Plate B, was prepared with 400 μL of assay media per well, then 2 μL of the stock DMSO solution from Plate A was added to each corresponding well. Plate B was covered to avoid media evaporation. In a 50 mL tube, a solution of nigericin in assay media at […] concentration was prepared. To a new 96 deep well plate, Plate C, 200 μL of this nigericin containing media was dispensed to each well and […] of the test compounds from Plate A to each corresponding well was added. Plate C was covered to avoid media evaporation. After 4 hours of priming, all the media from the LPS treated THP-1 cells in the initial U bottom plate was removed manually. To this plate of primed cells, 80 μL/well test compounds from Plate B was added in duplicate columns (5 compounds tested per plate). The plate was placed in an incubator for 30 min. […] The plate was placed back in the incubator for 1 hour. At the end of 1 hour, the supernatant from this test plate was transferred to a new 96 well V bottom polypropylene plate which was frozen immediately at -80° C. The plate was transferred to -20° C. the next day and awaiting further determination of cytokine IL-1β level. The release of IL-1β into the cell media was determined by MSD® Multi-Spot Assay System (V-Plex, IL-1B kit, […]-4). Following the manufacture's protocol and using the Alternate Protocol 3, Dilute-In-Plate protocol specifically, the level of IL-1β in the above collected supernatant plate was measured as electrochemiluminescent signals. Using MSD DISCOVERY WORKBENCH® analysis software, the signals were converted to the concentration of IL-1β in each well. The IC50 values of the compounds were calculated using the Graph Pad Prism software based on the […] concentration determined. The detection range of IL-1β using MSD kit was approximately […] (based on various lots of standards purchased from MSD).

Setting [3] is: U-937, PMA-differentiated U937 cells, LPS priming 5 h, nigericin, average of at least three experiments.
Where [4] appears, read: THP-1-ASC-GFP cells, LPS priming 4 h, nigericin, average of at least three experiments.

SMILES strings stand for the structures. Read-outs that look alike come from different tables or passages of the source. Bounds are passed on as bounds.

Regarding `Cc1oc([S@](=N)(=O)NC(=O)Nc2c3c(c(F)c4c2CCC4)CCC3)cc1CNC(C)C` (single isomer, unassigned) [Example 29], the IC50 in experiment [1] (setting [3]) and in experiment [2] (setting [4]) was < 5 nM in each case.

Take `Cc1oc(S(=N)(=O)NC(=O)Nc2c3c(cc4c2CCC4)CCC3)cc1CN1CCC[C@@H]1CO` (stereo partly drawn) [Example 7, N-((1,2,3,5,6,7-hexahydro-s-indacen-4-yl)carbamoyl)-4-(((R)-2-(hydroxymethyl)pyrrolidin-1-yl)methyl)-5-methylfuran-2-sulfonimidamide]: the IC50 in experiment [1] (setting [3]) and in experiment [2] (setting [4]) was < 5 nM in each case.

In the case of `CC(C)n1nc(S(=N)(=O)NC(=O)Nc2c3c(cc4c2CCC4)CCC3)cc1CN1CCC[C@@H]1CO` (stereo partly drawn) [Example 20, N-((1,2,3,5,6,7-hexahydro-s-indacen-4-yl)carbamoyl)-5-(((R)-2-(hydroxymethyl)pyrrolidin-1-yl)methyl)-1-isopropyl-1H-pyrazole-3-sulfonimidamide], the figures for the IC50 in experiment [1] (setting [3]) and in experiment [2] (setting [4]) were 5 to 50 nM and < 5 nM, respectively.

On to `Cc1oc(S(=O)(=O)NC(=O)Nc2c3c(c(F)c4c2CCC4)CCC3)cc1CN1CC[C@H](O)C1` [Example 38, (S)—N-((8-fluoro-1,2,3,5,6,7-hexahydro-s-indacen-4-yl)carbamoyl)-4-((3-hydroxypyrrolidin-1-yl)methyl)-5-methylfuran-2-sulfonamide], for which the IC50 in experiment [1] (U-937, 5 h) was 50 to 500 nM; in experiment [2] (4 h), 5 to 50 nM.

As to `Cc1oc(S(=O)(=O)NC(=O)Nc2c3c(c(F)c4c2CCC4)CCC3)cc1CN1CCC[C@H]1CO` [Example 44, (S)-N-((8-fluoro-1,2,3,5,6,7-hexahydro-s-indacen-4-yl)carbamoyl)-4-((2-(hydroxymethyl)pyrrolidin-1-yl)methyl)-5-methylfuran-2-sulfonamide], the IC50 in experiment [1] (setting [3]) and in experiment [2] (setting [4]) was 5 to 50 nM throughout.

For the compound `Cc1oc(S(=N)(=O)NC(=O)Nc2c3c(cc4c2CCC4)CCC3)cc1CN1CCC[C@H]1CO` (stereo partly drawn) [Example 8, N-((1,2,3,5,6,7-hexahydro-s-indacen-4-yl)carbamoyl)-4-(((S)-2-(hydroxymethyl)pyrrolidin-1-yl)methyl)-5-methylfuran-2-sulfonimidamide], the IC50 in experiment [1] (setting [3]) and in experiment [2] (setting [4]) was < 5 nM throughout.

Regarding `Cc1oc(S(=O)(=O)NC(=O)Nc2c3c(c(Cl)c4c2CCC4)CCC3)cc1CN(C)CC1(O)CCC1` [Example 48, N-((8-chloro-1,2,3,5,6,7-hexahydro-s-indacen-4-yl)carbamoyl)-4-((((1-hydroxycyclobutyl)methyl)(methyl)amino)methyl)-5-methylfuran-2-sulfonamide], the IC50 was 5 to 50 nM in experiment [1] (setting [3]) and < 5 nM in experiment [2] (setting [4]).

As to `Cc1oc(S(=O)(=O)NC(=O)Nc2c3c(c(F)c4c2CCC4)CCC3)cc1CN1C[C@@H](O)[C@@H](F)C1` [Example 42, N-((8-fluoro-1,2,3,5,6,7-hexahydro-s-indacen-4-yl)carbamoyl)-4-(((3S,4R)-3-fluoro-4-hydroxypyrrolidin-1-yl)methyl)-5-methylfuran-2-sulfonamide], the IC50 in experiment [1] (setting [3]) is 50 to 500 nM; in experiment [2] (setting [4]), 5 to 50 nM.

With `Cc1oc(S(=N)(=O)NC(=O)Nc2c3c(cc4c2CCC4)CCC3)cc1CN(C)CC1(CO)CCC1` (stereo not drawn) [Example 9, N-((1,2,3,5,6,7-hexahydro-s-indacen-4-yl)carbamoyl)-4-((((1-(hydroxymethyl)cyclobutyl)methyl)(methyl)amino)methyl)-5-methylfuran-2-sulfonimidamide], the IC50 in experiment [1] (setting [3]) is 5 to 50 nM; in experiment [2] (setting [4]) it was < 5 nM.

In the case of `CNCc1coc([S@@](=N)(=O)NC(=O)Nc2c3c(cc4c2CCC4)CCC3)c1` (single isomer, unassigned) [Example 76], the IC50 in experiment [1] (setting [3]) and in experiment [2] (setting [4]) was < 5 nM throughout.

Regarding `Cc1cc(S(=O)(=O)NC(=O)Nc2c3c(c(F)c4c2CCC4)CCC3)oc1CN1C[C@@H](F)[C@@H](O)C1` [Example 55, N-((8-fluoro-1,2,3,5,6,7-hexahydro-s-indacen-4-yl)carbamoyl)-5-(((3R,4S)-3-fluoro-4-hydroxypyrrolidin-1-yl)methyl)-4-methylfuran-2-sulfonamide], in experiment [1] (setting [3]), the half-maximal inhibitory concentration (IC50) fell in the range of 5 to 50 nM.

Turning to `CN(C(=O)c1coc(S(=N)(=O)NC(=O)Nc2c3c(cc4c2CCC4)CCC3)c1)[C@H]1C[C@H](O)C1` (stereo partly drawn) [Example 15, 5-(N-((1,2,3,5,6,7-hexahydro-s-indacen-4-yl)carbamoyl)sulfamidimidoyl)-N-((1r,3r)-3-hydroxycyclobutyl)-N-methylfuran-3-carboxamide], the IC50 in experiment [1] (setting [3]) was in the range of 5 to 50 nM.

With `Cc1cc(S(=O)(=O)NC(=O)Nc2c3c(c(F)c4c2CCC4)CCC3)oc1CN1C[C@@H](O)[C@H](F)C1` [Example 54, N-((8-fluoro-1,2,3,5,6,7-hexahydro-s-indacen-4-yl)carbamoyl)-5-(((3R,4R)-3-fluoro-4-hydroxypyrrolidin-1-yl)methyl)-4-methylfuran-2-sulfonamide], the IC50 in experiment [1] (setting [3]) was < 5 nM.

Consider `CN(Cc1cc(S(=O)(=O)NC(=O)Nc2c3c(c(Cl)c4c2CCC4)CCC3)nn1C)CC1(O)CCC1` [Example 68, N-((8-chloro-1,2,3,5,6,7-hexahydro-s-indacen-4-yl)carbamoyl)-5-((((1-hydroxycyclobutyl)methyl)(methyl)amino)methyl)-1-methyl-1H-pyrazole-3-sulfonamide], for which the IC50 in experiment [1] (setting [3]) lay in the range of 5 to 50 nM.
